Measurements taken from US10370380B2, “Octahydropyrrolo[3,4-c]pyrrole derivatives and uses thereof” (Sunshine Lake Pharma Co., Ltd., priority 2015, dated 2019).
Where two headings read alike, the source gives them in different places.

What was measured:
humanized OX2 receptor = target: T1, humanized OX2 receptor (Homo sapiens, UniProt O43614); test: Antagonistic effect on humanized OX2 receptor, calcium flux by fluorescence detection in HEK-293 cells; format: cell-based
T1 construct: expressed in transfected cells; host or cells: HEK-293 cells
T1 sequence (O43614 1-444): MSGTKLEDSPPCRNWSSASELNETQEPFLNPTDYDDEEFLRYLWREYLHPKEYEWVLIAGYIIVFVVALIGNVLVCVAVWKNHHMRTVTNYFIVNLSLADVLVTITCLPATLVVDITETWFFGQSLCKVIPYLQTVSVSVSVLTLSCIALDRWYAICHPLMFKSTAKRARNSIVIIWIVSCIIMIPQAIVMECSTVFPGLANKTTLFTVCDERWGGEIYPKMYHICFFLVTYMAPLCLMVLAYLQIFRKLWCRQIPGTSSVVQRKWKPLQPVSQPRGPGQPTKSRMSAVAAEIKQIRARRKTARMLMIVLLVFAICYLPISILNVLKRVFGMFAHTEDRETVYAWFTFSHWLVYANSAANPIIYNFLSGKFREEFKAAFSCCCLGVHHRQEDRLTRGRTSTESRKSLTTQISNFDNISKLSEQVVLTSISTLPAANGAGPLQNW
Experimental: (§1) The capability of the compounds provided herein to antagonize humanized OX2 receptors expressed in HEK-293 cells was evaluated by the influence of the compounds disclosed herein on calcium flux in cells induced by agonist detected by a method of fluorescence detection. The cells were suspended in DMEM culture medium (invitrogen), and then added to a microplate with an average density of 3×10^4 cells/well. The Hank's balanced salt solution (pH 7.4) containing fluorescent probes (Fluo4 NW, Invitrogen), probenecid (invitrogen), 20 mM […] (invitrogen) was added to the above microplate, and then incubated together with the cells at 37° C. for 60 min, further incubated at 22° C. for 15 min. The microplate was placed in a microplate reader (CellLux, PerkinElmer), and to which was added the test compound or reference antagonist or Hank's balanced salt solution, 5 min later, 10 nM of orexin B or Hank's balanced salt solution (as a blank contrast) was added. […] The experimental results were expressed as an inhibition percentage relative to a control group (the group with 10 nM of orexin B).
The standard reference antagonist is JNJ10397049, and IC50 values were calculated by the dose-effect curve obtained from a series of concentrations of the experimental test.

[1] = Pharmacokinetic evaluation after intravenous or gavage administration to rats; format: in vivo, SD rats; settings: SD, rat, in vivo
Experimental: (§2) The compounds disclosed herein were administered in form of a saline solution containing 5% DMSO, 5% Kolliphor HS 15, 2% (2% HCl) and 88% Saline, or a solution containing 10% DMSO, 10% Kolliphor HS 15 and 80% physiological saline to the subject animals. For intravenous administration, the animals were administered with a dose of 1 mg/kg or 2 mg/kg, and vein blood samples (0.3 mL) were collected at the time points of 0.083, 0.25, 0.5, 1.0, 2.0, 4.0, 6.0, 8.0 and 24 h after drug administration; plasma samples were collected by centrifugation of the vein blood samples at 3000 rpm or 4000 rpm for 10 minutes, and stored at −20° C. or −70° C. For gavage administration, the animals were administered with a dose of 2.5 mg/kg or 5 mg/kg, and vein blood samples (0.3 mL) were collected at the time points of 0.25, 0.5, 1.0, 2.0, 4.0, 6.0, 8.0 and 24 h after drug administration; plasma samples were collected by centrifugation at 3000 rpm or 4000 rpm for 10 minutes, and stored at −20° C. or −70° C. The positive control is suvorexant.
(§3) The above plasma samples were analyzed by the LC-MS/MS system.

[2] = Pharmacokinetic evaluation after intravenous or gavage administration to dogs; format: in vivo, Beagle dogs; settings: beagle, dog, in vivo
Experimental: as §2, §3

humanized OX1 receptor = target: T2, humanized OX1 receptor (Homo sapiens, UniProt O43613); test: Antagonistic effect on humanized OX1 receptor, calcium flux by fluorescence detection in CHO cells; format: cell-based; settings: CHO cells, calcium flux induced by 3 nM orexin A; read-out: OX1 IC50
T2 construct: expressed in transfected cells; host or cells: CHO (Chinese hamster ovary) cells
T2 sequence (O43613 1-425): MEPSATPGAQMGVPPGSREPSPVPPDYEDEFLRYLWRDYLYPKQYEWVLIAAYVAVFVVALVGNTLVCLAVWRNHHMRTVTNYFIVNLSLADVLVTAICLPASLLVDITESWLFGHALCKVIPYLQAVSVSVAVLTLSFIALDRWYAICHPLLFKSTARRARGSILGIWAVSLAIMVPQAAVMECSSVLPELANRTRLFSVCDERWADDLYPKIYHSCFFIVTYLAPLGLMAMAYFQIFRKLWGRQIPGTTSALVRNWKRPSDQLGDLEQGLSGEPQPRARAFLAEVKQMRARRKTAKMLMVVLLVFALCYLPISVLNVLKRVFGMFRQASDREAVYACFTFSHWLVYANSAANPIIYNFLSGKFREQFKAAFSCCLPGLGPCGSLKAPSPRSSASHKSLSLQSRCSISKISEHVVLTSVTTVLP
Experimental: as §1, with “OX1 receptor” for “OX2 receptors”, “Chinese hamster ovary (CHO)” for “HEK-293”, “2×10^4” for “3×10^4”, “3” for “10”, “A” for “B”, “A).” for “B).”
The standard reference antagonist is SB334867, and IC50 values were calculated by the dose-effect curve obtained from a series of concentrations of the experimental test.

[3] = HEK-293 cells, calcium flux induced by 10 nM orexin B, read-out: OX2 IC50

Compound	IC50 (humanized OX2 receptor; [3]) [nM]	AUC(0-inf) ([1]; iv, 1 mg/kg) [ng·h/mL]	AUC(0-t) ([1]; iv, 1 mg/kg) [ng·h/mL]	Cmax ([1]; iv, 1 mg/kg) [ng/mL]	MRT inf ([1]; iv, 1 mg/kg) [min]	Vd ([1]; iv, 1 mg/kg) [L/kg]	clearance ([1]; iv, 1 mg/kg) [mL/min/kg]	half-life ([1]; iv, 1 mg/kg) [min]	AUC(0-inf) ([1]; po, 2.5 mg/kg) [ng·h/mL]	AUC(0-t) ([1]; po, 2.5 mg/kg) [ng·h/mL]	Cmax ([1]; po, 2.5 mg/kg) [ng/mL]	F ([1]; po, 2.5 mg/kg) [%]	MRT inf ([1]; po, 2.5 mg/kg) [min]	half-life ([1]; po, 2.5 mg/kg) [min]	IC50 (humanized OX1 receptor) [nM]	also measured
O=C(c1ccccc1-n1nccn1)N1CC2CN(c3nc4cc(Cl)ccc4o3)CC2C1 (centres unmarked) [Example 2, (2-(2H-1,2,3-triazol-2-yl)phenyl)(5-(5-chlorobenzo[d]oxazol-2-yl)hexahydropyrrolo[3,4-c]pyrrol-2(1H)-yl)methanone]	221	551	549	639	47.2	1.42	30.4	36.1	790	783	485	57.3	88.8	61.8	–	–
O=C(c1c(F)cccc1-n1nccn1)N1CC2CN(c3nc4cc(Cl)ccc4o3)CC2C1 (centres unmarked) [Example 3, (5-(5-chlorobenzo[d]oxazol-2-yl)hexahydropyrrolo[3,4-c]pyrrol-2(1H)-yl)(2-fluoro-6-(2H-1,2,3-triazol-2-yl)phenyl)methanone]	147	626	624	760	45.5	1.21	26.7	34.6	907	904	567	57.9	82.2	52.4	–	AUC(0-inf) ([2]; iv, 1 mg/kg): 8330 ng·h/mL; AUC(0-t) ([2]; iv, 1 mg/kg): 8320 ng·h/mL; Cmax ([2]; iv, 1 mg/kg): 3830 ng/mL; MRT inf ([2]; iv, 1 mg/kg): 175 min; Vd ([2]; iv, 1 mg/kg): 1.75 L/kg; half-life ([2]; iv, 1 mg/kg): 144 min; AUC(0-t) ([2]; po, 5 mg/kg): 35000 ng·h/mL; Cmax ([2]; po, 5 mg/kg): 5640 ng/mL; F ([2]; po, 5 mg/kg): 84.0%; MRT inf ([2]; po, 5 mg/kg): 275 min; half-life ([2]; po, 5 mg/kg): 176 min
Cc1ccc(-n2nccn2)c(C(=O)N2CC3CN(c4nc5cc(F)ccc5o4)CC3C2)c1 (centres unmarked) [Example 4, (5-(5-fluorobenzo[d]oxazol-2-yl)hexahydropyrrolo[3,4-c]pyrrol-2(1H)-yl)(5-methyl-2-(2H-1,2,3-triazol-2-yl)phenyl)methanone]	–	–	–	–	–	–	–	–	–	–	–	–	–	–	611	IC50 (humanized OX2 receptor): 342 nM
O=C(c1ccccc1-n1nccn1)N1CC2CN(c3nc4cc(F)ccc4o3)CC2C1 (centres unmarked) [Example 5, (2-(2H-1,2,3-triazol-2-yl)phenyl)(5-(5-fluorobenzo[d]oxazol-2-yl)hexahydropyrrolo[3,4-c]pyrrol-2(1H)-yl)methanone]	235	–	–	–	–	–	–	–	–	–	–	–	–	–	642	–
O=C(c1c(F)cccc1-n1nccn1)N1CC2CN(c3nc4cc(F)ccc4o3)CC2C1 (centres unmarked) [Example 6, (2-fluoro-6-(2H-1,2,3-triazol-2-yl)phenyl)(5-(5-fluorobenzo[d]oxazol-2-yl)hexahydropyrrolo[3,4-c]pyrrol-2(1H)-yl)methanone]	201	–	–	–	–	–	–	–	–	–	–	–	–	–	589	–
Cc1ccc(-n2nccn2)c(C(=O)N2CC3CN(c4ncc5cc(F)ccc5n4)CC3C2)c1 (centres unmarked) [Example 12, (5-(6-fluoroquinazolin-2-yl)hexahydropyrrolo[3,4-c]pyrrol-2(1H)-yl)(5-methyl-2-(2H-1,2,3-triazol-2-yl)phenyl)methanone]	140	460	460	749	25.6	0.987	40.1	24.3	454	452	340	39.3	76.8	50.2	347	AUC(0-inf) ([2]; iv, 1 mg/kg): 1140 ng·h/mL; AUC(0-t) ([2]; iv, 1 mg/kg): 1130 ng·h/mL; Cmax ([2]; iv, 1 mg/kg): 1390 ng/mL; MRT inf ([2]; iv, 1 mg/kg): 58.2 min; Vd ([2]; iv, 1 mg/kg): 0.85 L/kg; clearance ([2]; iv, 1 mg/kg): 14.7 mL/min/kg; half-life ([2]; iv, 1 mg/kg): 42 min; AUC(0-inf) ([2]; po, 5 mg/kg): 7880 ng·h/mL; AUC(0-t) ([2]; po, 5 mg/kg): 7310 ng·h/mL; Cmax ([2]; po, 5 mg/kg): 2310 ng/mL; F ([2]; po, 5 mg/kg): 129.4%; MRT inf ([2]; po, 5 mg/kg): 187 min; half-life ([2]; po, 5 mg/kg): 119 min
O=C(c1ccccc1-n1nccn1)N1CC2CN(c3ncc4cc(F)ccc4n3)CC2C1 (centres unmarked) [Example 13, (2-(2H-1,2,3-triazol-2-yl)phenyl)(5-(6-fluoroquinazolin-2-yl)hexahydropyrrolo [3,4-c]pyrrol-2(1H)-yl)methanone]	–	865	864	1270	32.9	0.648	20.1	30.1	752	750	537	34.7	70.2	41	–	–
